Experimental data reported in patent US20150099653A1, “PROCESS OF DIAGNOSTIC, PROGNOSTIC AND THERAPEUTIC MONITORING OF SOLID TUMORS” (CENTRE NATIONAL DE LA RECHERCHE SCIENTIFIQUE, priority 2011, published 2015).

Tests used:
line coming from HBCx-4A [1] = experiment: Cisplatin dose response kinetic, cell viability (OD 450 nm); format: cell-based, human; conditions: HBCx-4A line on plastic
Description: FIG. 16A: cisplatine dose response kinetic
from top to bottom: white circle: no treatment (no tt), white square: 35 μM, white triangle (top point): 45 μM, white triangle (bottom point): 55 μM, white diamond: 65 μM, black circle: […]

line coming from HBCx-4A [2] = experiment: RBD expression after in vitro cisplatin (MFI, flow cytometry); format: cell-based, human
Description: FIG. 16B: PERV-A.RBD • x-axis: time in hours • y-axis: MFI (mean of fluorescent intensity)
(§1) For metabolite transporters labelling, 200 000 to 500 000 viable cells were incubated at 37° C. in RBD premix consisting in 3 μl of a RBD mouse Fc tagged plus 3 μl of a RBD rabbit Fc tagged diluted in 50 μl of CO2 independent medium and washed once before secondary staining with fluorescent conjugated antibodies against mouse (goat anti-mouse AF488, Cell Signalling Technology) and rabbit (goat anti-rabbit AF647, Cell Signalling Technology). Rat anti-mouse Pan H-2 added in a third step allowed for the discrimination between human and mouse cells.

[3] = test system: breast tumor xenograft (HBCx-4A, HBCx-16, HBCx-8, HBCx-17); experiment: Cisplatin treatment in four models of breast tumor xenograft, RBD expression; format: in vivo, mouse
Text: The four models are the followings: HBCx-4A (non-responsive), HBCx-16 (responsive), HBCx-8 (responsive), HBCx-17 (responsive). […] Left histograms (FeLVC.RBD): from left to right HBCx-4A, HBCx-16, HBCx-8, HBCx-17. Right histograms (BLV.RBD): from left to right HBCx-4A, HBCx-16, HBCx-8, HBCx-17.

[4] = test system: HBCx-41 in vitro cultured dissociated cells; experiment: In vitro treatment of ex vivo cultured dissociated cells with anti-cancer drugs, WST-1 viability; format: cell-based, human; conditions: HBCx-41 dissociated cells, incremental concentrations, 72 h incubation
Description: In vitro treatments with anti-cancer drugs were performed in flat bottomed 96 well microplates. Equal number of viable cells (40 000) were distributed in each well and allowed for attachment for 3 days. […] After 72 h incubation in presence or absence of compounds, WST-1 (based on the cleavage of the tetrazolium salt by respiratory mitochondrial enzyme, Roche diagnostic) was added and incubated following manufacturer instructions. Optic density was read on a microplate reader at 450 nm. A sigmoid analytical curve gave the 50% inhibitory concentration (IC50).

[5] = test system: breast tumor xenograft (HBCx-3); conditions: HBCx-3, short times; cited from earlier work
[6] = test system: breast tumor xenograft (HBCx-3); experiment: Everolimus treatment in breast tumor xenograft, RBD expression; format: in vivo, mouse; conditions: HBCx-3, 2.5 mg/kg i.p.
Description: FIG. 12 presents the effect of an everolimus treatment (2.5 mg/kg, i.p.—intraperotoneal) in a model of breast tumor xenograft (HBCx-3) known to be responsive to everolimus treatment at short times.
Mice of example 1 have been used.
Four RBDs are studied: • Circle: Xeno.RBD • Triangle: Ampho.RBD • Diamond: FeLVC.RBD • Square: RD114.RBD
The human breast cancer specimens were obtained with informed consent from the patients undergoing surgery. Fresh tumor fragments were grafted into the interscapular fat pad of 8-12 week old female Swiss nude mice, under avertin anaesthesia. Mice were maintained in specific pathogen-free animal housing (Institut Curie, Paris, France) and received estrogen (17 mg/ml) diluted in drinking water. Xenografts appeared at the graft site 2 to 8 months after initial transplantation. They were subsequently transplanted from mouse to mouse and formally established since third in vivo passage (Marangoni, Elisabetta A new model of patient tumor-derived breast cancer xenografts for preclinical assays Clin Cancer Res. 2007 Jul. 1; 13(13):3989-98). All the experiments were performed in accordance with the UKCCCR guidelines about animal ethics in neoplasia research (British Journal of Cancer (2010) 102, 1555-1577). Present experiments were all performed in well-established tumor models and required a minimal tumor size of 600 mm^3 to collect enough cellular material. In all cases, particular attention through careful clinical examination has been paid to ensure that the recipient mice remained in a general good health to avoid as far as possible necrotic tumors. All tumors were aseptically excised from ethically sacrificed mice with autoclaved surgical material. NEDB and culture media w/o FCS are both equivalent for a short period before processing.
as §1

line coming from HBCx-4A [7] = experiment: Everolimus dose response kinetic, WST (OD 450 nm); format: cell-based, human
Description: (§2) FIG. 17A to 17H presents the in vitro effect of everolimus on a line coming from HBCx-4A and put on plastic in function of time.
FIG. 17A: everolimus dose response kinetic
from top to bottom: no treatment (nott), black circle: 0.001 μM, white square: 0.1 μM, black triangle: 10 μM, bottom white square: 50 μM.
At 10 μM, the dose of everolimus is a cytotoxic dose. • x-axis: time in hours • y-axis: WST (OD 450 nm)

line coming from HBCx-4A [8] = experiment: RBD expression after in vitro everolimus (MESF, flow cytometry); format: cell-based, human; conditions: 0, 1, 100, 1000 nM; 6, 24, 72 h
Description: as §2
FIGS. 17B and 17C: 6 hours after everolimus.
FIGS. 17D and 17E: 24 hours after everolimus.
FIGS. 17F to 17H: 72 hours after everolimus. […]
High sensitivity is a challenge in flow cytometry. […] To visualize thin variation of expression level in multiple channel protocol, we need one unique unit, as fluorescence arbitrary units read on the same cytometer from two different fluorophores in their own channel cannot be confronted. Molecule of Equivalent Soluble Fluorochrome (MESF) is given by regression of arbitrary fluorescence measured versus standardisation beads coated with known amounts of same fluorochrome used in cells staining (AF647 and AF488 MESF quantum beads, BangsLab) acting as intra- and interexperiments calibrator. Measured fluorescence depends on lasers power, photomultiplicator tube settings, pH of staining medium. Fluorescence measured is proportional to the number of fluorochromes linked to the antibody used, itself correlated to the number of antibody bound to specific sites. […] For RBDs, quantification of non-specific signal was determined using secondary conjugated antibody alone.

Glut1 = biological target: T1, Glut1 (human, UniProt P11166 1-492); experiment: flow cytometry, RBD-Fc labelling of viable human breast cancer xenograft cells (HBCx-3, -4A, -8, -24, -30), read out in MESF
T1 construct: whole, on cells; also called glucose transporter GLUT-1
T1 sequence: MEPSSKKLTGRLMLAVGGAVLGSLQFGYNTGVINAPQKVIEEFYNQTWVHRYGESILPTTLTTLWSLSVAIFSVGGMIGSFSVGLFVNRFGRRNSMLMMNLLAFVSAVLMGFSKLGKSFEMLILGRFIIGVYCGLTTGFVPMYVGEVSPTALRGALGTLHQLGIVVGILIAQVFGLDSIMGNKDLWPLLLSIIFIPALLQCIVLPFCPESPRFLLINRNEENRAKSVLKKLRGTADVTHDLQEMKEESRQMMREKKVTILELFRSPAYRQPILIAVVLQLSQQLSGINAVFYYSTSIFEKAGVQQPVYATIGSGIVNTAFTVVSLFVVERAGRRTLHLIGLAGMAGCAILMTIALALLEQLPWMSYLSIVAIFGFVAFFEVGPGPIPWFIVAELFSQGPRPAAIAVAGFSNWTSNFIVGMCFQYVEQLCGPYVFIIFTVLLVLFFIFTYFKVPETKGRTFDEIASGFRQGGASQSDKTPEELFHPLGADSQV

PiT1 = biological target: T2, PiT1 (human, UniProt Q8WUM9 1-679); experiment: as above
T2 construct: whole, on cells
T2 sequence: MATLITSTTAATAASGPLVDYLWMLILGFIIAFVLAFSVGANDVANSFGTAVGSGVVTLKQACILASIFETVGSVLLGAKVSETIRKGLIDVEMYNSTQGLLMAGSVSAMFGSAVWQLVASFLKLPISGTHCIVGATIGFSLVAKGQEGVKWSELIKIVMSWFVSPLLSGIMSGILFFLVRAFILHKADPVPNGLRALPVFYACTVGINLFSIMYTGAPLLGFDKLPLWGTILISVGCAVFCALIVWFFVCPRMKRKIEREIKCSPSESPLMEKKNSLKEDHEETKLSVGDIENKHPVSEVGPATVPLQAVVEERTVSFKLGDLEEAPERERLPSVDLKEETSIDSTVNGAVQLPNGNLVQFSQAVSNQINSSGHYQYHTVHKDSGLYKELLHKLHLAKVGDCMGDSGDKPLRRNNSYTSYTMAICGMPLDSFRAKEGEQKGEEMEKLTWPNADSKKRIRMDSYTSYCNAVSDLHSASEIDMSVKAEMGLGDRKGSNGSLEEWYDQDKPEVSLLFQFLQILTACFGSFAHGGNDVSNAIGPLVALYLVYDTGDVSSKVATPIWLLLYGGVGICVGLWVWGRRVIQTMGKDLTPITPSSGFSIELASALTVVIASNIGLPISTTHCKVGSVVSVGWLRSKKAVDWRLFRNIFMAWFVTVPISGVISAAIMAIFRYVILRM

[9] = 24 and 48 h, both doses (50 and 100 μM)
[10] = everolimus, HBCx-4A line on plastic

N.N.[Cl][Pt][Cl] [cisplatin, Cisplatin]
cytostatic dose (line coming from HBCx-4A [1]): 55 µM | AmphoMLV.RBD expression at 100 μM compared with 50 μM (line coming from HBCx-4A [2]; 100 μM vs 50 μM): higher than at 50 μM | RD114.RBD expression at 100 μM compared with 50 μM (line coming from HBCx-4A [2]; 100 μM vs 50 μM): higher than at 50 μM | expression of AmphoMLV.RBD (MFI) (line coming from HBCx-4A [2]; [9]): increased | expression of RD114.RBD (MFI) (line coming from HBCx-4A [2]; [9]): increased | expression of PERV-A.RBD (MFI) (line coming from HBCx-4A [2]; 48 h, both doses (50 and 100 μM)): increased | response of the model to treatment ([3]; HBCx-4A, 6 mg/kg i.p.): non-responsive | response of the model to treatment ([3]; HBCx-8, 6 mg/kg i.p.): responsive | response of the model to treatment ([3]; HBCx-16, 6 mg/kg i.p.): responsive | response of the model to treatment ([3]; HBCx-17, 6 mg/kg i.p.): responsive | expression of FeLVC.RBD ([3]; non responsive model (HBCx-4A), 72 h post treatment, 6 mg/kg i.p.): increase | expression of BLV.RBD ([3]; responsive and non responsive models, 72 h post treatment, 6 mg/kg i.p.): no difference | expression of FeLVC.RBD ([3]; responsive model HBCx-16, 72 h post treatment, 6 mg/kg i.p.): decrease | toxicity (cell viability %) [4]: dose dependent toxicity

CC(=O)O[C@@]12CO[C@@H]1C[C@H](O)[C@@]1(C)C(=O)[C@H](O)C3=C(C)[C@@H](OC(=O)[C@H](O)[C@@H](NC(=O)OC(C)(C)C)c4ccccc4)C[C@@](O)([C@@H](OC(=O)c4ccccc4)[C@H]21)C3(C)C [docetaxel, Docetaxel]
toxicity (cell viability %) [4]: dose dependent toxicity

CO[C@H]1C[C@@H]2CC[C@@H](C)[C@@](O)(O2)C(=O)C(=O)N2CCCC[C@H]2C(=O)O[C@H]([C@H](C)C[C@@H]2CC[C@@H](OCCO)[C@H](OC)C2)CC(=O)[C@H](C)/C=C(\C)[C@@H](O)[C@@H](OC)C(=O)[C@H](C)C[C@H](C)/C=C/C=C/C=C/1C [everolimus]
response of the model to treatment [5]: responsive | variation of Ampho.RBD expression [6]: vary later | variation of FeLVC.RBD expression [6]: vary at the beginning of the treatment | variation of RD114.RBD expression [6]: higher than the one of Ampho | variation of Xeno.RBD expression [6]: vary at the beginning of the treatment | expression of RBDs with the treatment ([6]; Xeno, Ampho, FeLVC, RD114 RBDs): varies significantly | effect on the line at 0.001 μM (line coming from HBCx-4A [7]; everolimus 0.001 μM): proliferation of the line | cytostatic dose (line coming from HBCx-4A [7]; [10]): 0.1 µM | cytotoxic dose (line coming from HBCx-4A [7]; [10]): 10 µM | response of RBDs (MESF) (line coming from HBCx-4A [8]): time and dose dependant

B1: H2.RBD.mFC immunoadhesin (HTLV-2 SU receptor binding domain fused to mouse IgG Fc) (Fc fusion)
chain: QQSRCTLTVGISSYHSSPCSPTQPVCTWNLDLNSLTTDQRLHPPCPNLITYSGFHKTYSLYLFPHWIKKPNRQGLGYYSPSYNDPCSLQCPYLGCQSWTCPYTGPVSSPSWKFHSDVNFTQEVSQVSLRLHFSKCGSSMTLLVDAPGYDPLWFITSEPTQ
notes: also called HTLV-2.RBD-Mfc; RBD derived from HTLV-2; not shown: mouse IgG Fc fragment
binding result (Glut1): binds

B2: Ko.RBD.mFC immunoadhesin (KoRV SU receptor binding domain fused to mouse IgG Fc) (Fc fusion)
chain: NQQHNNPHQPMTLTWQVLSQTGSVVWEKKAVEPPWTWWPSLEPDVCALVAGLESWDIPELTASASQQARPPDSNYEHAYNQITWGTLGCSYPRARTRIARSQFYVCPRDGRSLSEARRCGGLESLYCKEWGCETAGTAYWQPRSSWDLITVGQGHPTGTCERTGWCNPLKIEFTEPGKRFRNWLQGRTWGLRFYVTGHPGVQLTIRLVITSPPPVVVG
notes: also called KoRV.RBD-Mfc; KoRV.RBD.MFC; not shown: mouse IgG Fc fragment
binding result (PiT1): binds
